One assay has as its target Nociceptin receptor (Homo sapiens, UniProt P41146). As to the kind of experiment: Displacement of [3H]-nociceptin from human nociceptin receptor expressed in cell membranes after 60 mins by liquid scintillation counting analysis.
Assay [1] concerns the target Receptor tyrosine-protein kinase erbB-4 (Homo sapiens, UniProt Q15303). As to the kind of experiment: Inhibition of human ERBB4 using poly[Glu:Tyr] (4:1) as substrate by [gamma-33P]-ATP assay.
Assay [2] addresses T1, Tyrosine-protein kinase Lyn (Homo sapiens, UniProt P07948). As to the kind of experiment: Inhibition of human LYN-B using poly[Glu:Tyr] (4:1) as substrate by [gamma-33P]-ATP assay.
Target sequence in this assay (P07948 whole entry): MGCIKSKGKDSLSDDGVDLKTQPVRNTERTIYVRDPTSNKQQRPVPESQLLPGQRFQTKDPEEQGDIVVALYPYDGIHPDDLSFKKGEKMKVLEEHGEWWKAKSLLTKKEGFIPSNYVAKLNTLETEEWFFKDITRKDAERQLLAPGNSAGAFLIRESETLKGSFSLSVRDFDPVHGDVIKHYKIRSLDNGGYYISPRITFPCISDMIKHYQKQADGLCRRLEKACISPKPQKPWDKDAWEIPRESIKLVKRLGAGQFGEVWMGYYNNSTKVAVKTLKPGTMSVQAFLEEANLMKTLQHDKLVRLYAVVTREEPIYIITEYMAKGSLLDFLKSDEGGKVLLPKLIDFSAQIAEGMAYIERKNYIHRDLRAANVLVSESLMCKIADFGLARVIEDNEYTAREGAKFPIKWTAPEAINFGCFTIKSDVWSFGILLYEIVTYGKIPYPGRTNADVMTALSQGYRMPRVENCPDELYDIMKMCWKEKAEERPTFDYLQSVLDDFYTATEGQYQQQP
The target in assay [3] is Calcium/calmodulin-dependent protein kinase type 1G (Homo sapiens, UniProt Q96NX5). As to the kind of experiment: Inhibition of human CAMK1G using KKALRRQETVDAL as substrate by [gamma-33P]-ATP assay.
Assay [4] addresses T2, Tyrosine-protein kinase BTK (Homo sapiens, UniProt Q06187). As to the kind of experiment: Inhibition of human BTK using KVEKIGEGTYGVVYK as substrate by [gamma-33P]-ATP assay.
In assay [5] the target is Tyrosine-protein kinase CSK (Homo sapiens, UniProt P41240). As to the kind of experiment: Inhibition of human CSK using poly[Glu:Tyr] (4:1) as substrate by [gamma-33P]-ATP assay.
Assay [6] has as its target Tyrosine-protein kinase ABL1 (Homo sapiens) (UniProt P00519). As to the kind of experiment: Inhibition of human ABL1 at 20 uM using EAIYAAPFAKKK as substrate by [gamma-33P]-ATP assay relative to control.
The target of assay [7] is Tyrosine-protein kinase Lck (Homo sapiens) (UniProt P06239). As to the kind of experiment: Inhibition of human LCK at 20 uM using poly[Glu:Tyr] (4:1) as substrate by [gamma-33P]-ATP assay relative to control.
Assay [8] has as its target T3, Tyrosine-protein kinase Fyn (Homo sapiens, UniProt P06241). As to the kind of experiment: Inhibition of human FYN at 20 uM using poly[Glu:Tyr] (4:1) as substrate by [gamma-33P]-ATP assay relative to control.
Target sequence in this assay (P06241 2-537 limits assumed): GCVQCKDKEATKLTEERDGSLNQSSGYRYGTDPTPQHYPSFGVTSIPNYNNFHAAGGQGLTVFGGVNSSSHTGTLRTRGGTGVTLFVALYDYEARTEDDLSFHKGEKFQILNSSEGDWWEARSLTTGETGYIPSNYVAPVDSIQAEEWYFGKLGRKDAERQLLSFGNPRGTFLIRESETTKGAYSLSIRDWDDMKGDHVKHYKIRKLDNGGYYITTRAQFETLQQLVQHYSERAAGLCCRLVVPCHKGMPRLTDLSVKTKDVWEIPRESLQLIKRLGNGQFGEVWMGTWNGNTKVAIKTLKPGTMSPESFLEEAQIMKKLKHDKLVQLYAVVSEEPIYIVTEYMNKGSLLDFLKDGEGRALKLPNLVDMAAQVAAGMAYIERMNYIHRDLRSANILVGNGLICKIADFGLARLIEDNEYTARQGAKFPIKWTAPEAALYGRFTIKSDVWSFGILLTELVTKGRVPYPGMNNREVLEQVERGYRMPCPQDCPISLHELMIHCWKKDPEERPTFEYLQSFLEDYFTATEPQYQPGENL
The target of assay [9] is T1, Tyrosine-protein kinase Lyn. As to the kind of experiment: Inhibition of human LYN at 20 uM using poly[Glu:Tyr] (4:1) as substrate by [gamma-33P]-ATP assay relative to control.
Target sequence in this assay (P07948 2-512 limits assumed): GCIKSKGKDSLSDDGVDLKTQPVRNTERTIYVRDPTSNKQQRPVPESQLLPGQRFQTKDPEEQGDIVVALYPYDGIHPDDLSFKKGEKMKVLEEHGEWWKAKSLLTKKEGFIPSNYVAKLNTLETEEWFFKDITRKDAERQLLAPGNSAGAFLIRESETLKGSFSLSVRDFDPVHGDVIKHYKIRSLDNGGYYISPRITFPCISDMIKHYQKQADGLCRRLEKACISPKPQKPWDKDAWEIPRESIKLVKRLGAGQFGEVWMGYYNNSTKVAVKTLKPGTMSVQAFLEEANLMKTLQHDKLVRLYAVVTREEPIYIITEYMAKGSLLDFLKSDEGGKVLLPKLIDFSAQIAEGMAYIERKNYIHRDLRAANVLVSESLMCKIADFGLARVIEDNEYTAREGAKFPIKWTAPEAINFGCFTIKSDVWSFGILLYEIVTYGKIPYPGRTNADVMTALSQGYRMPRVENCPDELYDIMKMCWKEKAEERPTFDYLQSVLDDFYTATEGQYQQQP
Assay [10] concerns the target T3, Tyrosine-protein kinase Fyn. As to the kind of experiment: Inhibition of Fyn A (unknown origin) at 0.5 uM preincubated for 10 mins followed by substrate addition and measured after 1 hr by ADP-Glo luminescence assay relative to control.
Target sequence in this assay (P06241 2-537 limits assumed): as the sequence (P06241 2-537 limits assumed) above
Assay [11] has as its target T2, Tyrosine-protein kinase BTK. As to the kind of experiment: Inhibition of BTK (unknown origin) preincubated for 10 mins followed by substrate addition and measured after 1 hr by ADP-Glo luminescence assay.
Assay [12] concerns the target T3, Tyrosine-protein kinase Fyn. As to the kind of experiment: Inhibition of Fyn A (unknown origin) preincubated for 10 mins followed by substrate addition and measured after 1 hr by ADP-Glo luminescence assay.
Target sequence in this assay (P06241 whole entry): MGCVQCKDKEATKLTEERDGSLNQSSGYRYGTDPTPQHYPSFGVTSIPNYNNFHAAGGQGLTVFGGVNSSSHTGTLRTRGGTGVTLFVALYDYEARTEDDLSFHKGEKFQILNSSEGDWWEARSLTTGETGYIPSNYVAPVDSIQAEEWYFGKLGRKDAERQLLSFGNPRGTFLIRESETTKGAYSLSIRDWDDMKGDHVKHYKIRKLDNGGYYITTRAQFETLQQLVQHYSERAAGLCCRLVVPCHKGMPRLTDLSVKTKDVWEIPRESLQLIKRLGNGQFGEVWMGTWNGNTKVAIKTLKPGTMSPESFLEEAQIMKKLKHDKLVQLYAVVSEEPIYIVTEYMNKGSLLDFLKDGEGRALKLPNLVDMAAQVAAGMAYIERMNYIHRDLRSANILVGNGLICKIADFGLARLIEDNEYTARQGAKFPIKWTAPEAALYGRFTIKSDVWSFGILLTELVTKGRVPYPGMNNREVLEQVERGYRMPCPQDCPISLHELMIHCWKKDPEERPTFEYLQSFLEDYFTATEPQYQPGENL
Assay [13] relates to HCT-116. As to the kind of experiment: cells. The settings on record: Homo sapiens, HCT-116, 72 h.
Description: Antiproliferative activity against p53+/+ human HCT116 cells after 72 hrs by CellTiter 96 aqueous one solution assay
In assay [14] the test system is HCT-116. As to the kind of experiment: cells. The settings on record: Homo sapiens, HCT-116, 72 h. This is another data set of the same source.
Description: Antiproliferative activity against p53-/- human HCT116 cells after 72 hrs by CellTiter 96 aqueous one solution assay
The next assay deals with MCF7. As to the kind of experiment: cells. The settings on record: Homo sapiens, MCF7, 72 h.
Another assay has as its system A549. As to the kind of experiment: cells. The note with it: Homo sapiens, A549, 72 h.
The subject of a further assay is NHDF. As to the kind of experiment: cells. The settings on record: Homo sapiens, 72 h.

T2 sequence (Q06187 whole entry): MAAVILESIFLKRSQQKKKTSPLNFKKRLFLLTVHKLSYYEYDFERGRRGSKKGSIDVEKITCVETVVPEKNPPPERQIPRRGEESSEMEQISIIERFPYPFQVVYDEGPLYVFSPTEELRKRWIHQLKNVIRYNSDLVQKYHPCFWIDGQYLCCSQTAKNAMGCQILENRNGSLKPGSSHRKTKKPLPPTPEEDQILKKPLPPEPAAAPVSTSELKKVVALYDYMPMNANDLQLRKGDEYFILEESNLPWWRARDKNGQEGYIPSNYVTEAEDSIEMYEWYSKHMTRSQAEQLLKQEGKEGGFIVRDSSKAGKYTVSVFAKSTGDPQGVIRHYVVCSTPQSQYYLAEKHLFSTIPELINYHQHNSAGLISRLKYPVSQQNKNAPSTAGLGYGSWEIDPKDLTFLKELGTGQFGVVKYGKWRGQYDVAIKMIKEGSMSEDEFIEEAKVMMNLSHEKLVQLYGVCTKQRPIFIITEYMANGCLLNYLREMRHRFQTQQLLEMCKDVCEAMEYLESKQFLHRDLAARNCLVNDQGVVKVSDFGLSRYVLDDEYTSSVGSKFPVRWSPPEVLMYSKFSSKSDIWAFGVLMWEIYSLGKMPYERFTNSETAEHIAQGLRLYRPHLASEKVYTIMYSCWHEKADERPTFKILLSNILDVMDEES
Chain of Tyrosine-protein kinase ABL1 (Homo sapiens) (P00519 whole entry): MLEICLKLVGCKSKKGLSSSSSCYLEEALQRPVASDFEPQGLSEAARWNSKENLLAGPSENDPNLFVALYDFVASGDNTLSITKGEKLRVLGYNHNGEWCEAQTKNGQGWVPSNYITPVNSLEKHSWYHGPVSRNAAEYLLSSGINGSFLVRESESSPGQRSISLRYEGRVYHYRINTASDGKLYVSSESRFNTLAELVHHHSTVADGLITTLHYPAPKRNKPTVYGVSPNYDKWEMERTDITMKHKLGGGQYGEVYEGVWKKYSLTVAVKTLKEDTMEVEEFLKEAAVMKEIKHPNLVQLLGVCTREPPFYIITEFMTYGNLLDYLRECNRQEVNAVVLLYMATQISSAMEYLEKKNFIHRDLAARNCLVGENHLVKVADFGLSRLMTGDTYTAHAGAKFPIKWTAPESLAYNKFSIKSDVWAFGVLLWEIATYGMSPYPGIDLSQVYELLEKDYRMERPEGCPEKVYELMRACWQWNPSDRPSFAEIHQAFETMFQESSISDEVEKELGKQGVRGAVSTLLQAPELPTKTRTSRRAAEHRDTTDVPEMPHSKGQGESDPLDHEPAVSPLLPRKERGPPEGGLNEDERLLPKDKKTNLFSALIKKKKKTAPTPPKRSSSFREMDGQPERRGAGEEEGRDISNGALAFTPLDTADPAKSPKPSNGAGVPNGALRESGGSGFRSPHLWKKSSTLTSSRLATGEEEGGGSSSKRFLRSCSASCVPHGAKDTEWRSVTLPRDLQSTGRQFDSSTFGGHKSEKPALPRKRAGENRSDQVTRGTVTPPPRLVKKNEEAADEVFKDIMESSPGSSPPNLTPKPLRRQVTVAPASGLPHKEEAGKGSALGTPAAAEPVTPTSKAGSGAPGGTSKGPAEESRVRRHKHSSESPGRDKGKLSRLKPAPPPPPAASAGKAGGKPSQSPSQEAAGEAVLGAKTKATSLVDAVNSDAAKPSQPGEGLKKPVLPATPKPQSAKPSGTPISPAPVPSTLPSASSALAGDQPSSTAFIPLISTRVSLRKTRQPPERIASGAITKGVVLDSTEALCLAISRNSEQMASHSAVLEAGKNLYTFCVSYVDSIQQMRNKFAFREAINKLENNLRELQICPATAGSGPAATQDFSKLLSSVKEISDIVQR
Chain of Calcium/calmodulin-dependent protein kinase type 1G (Q96NX5 whole entry): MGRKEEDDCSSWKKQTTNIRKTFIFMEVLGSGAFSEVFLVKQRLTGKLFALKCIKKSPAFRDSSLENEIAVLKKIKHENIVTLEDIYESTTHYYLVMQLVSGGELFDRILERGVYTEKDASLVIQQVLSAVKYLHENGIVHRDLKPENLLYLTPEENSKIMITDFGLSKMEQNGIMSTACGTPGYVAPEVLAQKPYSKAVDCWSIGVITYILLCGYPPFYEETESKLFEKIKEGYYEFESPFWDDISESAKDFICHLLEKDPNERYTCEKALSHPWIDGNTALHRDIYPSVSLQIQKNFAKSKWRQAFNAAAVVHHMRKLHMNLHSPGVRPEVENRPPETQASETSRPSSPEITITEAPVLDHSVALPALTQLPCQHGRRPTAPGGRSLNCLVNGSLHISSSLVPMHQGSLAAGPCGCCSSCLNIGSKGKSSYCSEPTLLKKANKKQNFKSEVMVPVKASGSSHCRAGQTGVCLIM
Chain of Nociceptin receptor (P41146 whole entry): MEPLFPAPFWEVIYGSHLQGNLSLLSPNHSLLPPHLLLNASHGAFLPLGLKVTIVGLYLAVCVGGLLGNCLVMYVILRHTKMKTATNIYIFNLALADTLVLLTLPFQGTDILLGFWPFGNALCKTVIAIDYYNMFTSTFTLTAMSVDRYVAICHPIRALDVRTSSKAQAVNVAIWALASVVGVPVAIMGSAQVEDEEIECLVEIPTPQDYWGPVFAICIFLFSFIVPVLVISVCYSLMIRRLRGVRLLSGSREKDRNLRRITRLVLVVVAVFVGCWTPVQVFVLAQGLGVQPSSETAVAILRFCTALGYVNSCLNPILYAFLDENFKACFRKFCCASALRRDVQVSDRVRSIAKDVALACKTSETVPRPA
Description for A549: Antiproliferative activity against human A549 cells after 72 hrs by CellTiter 96 aqueous one solution assay
Description for MCF7: Antiproliferative activity against human MCF7 cells after 72 hrs by CellTiter 96 aqueous one solution assay
Description for NHDF: Antiproliferative activity against human NHDF cells after 72 hrs by CellTiter 96 aqueous one solution assay

In the case of `Cc1ccc2nc(/C=C/c3ccccn3)nc(N[C@H]3CC[C@@H](N)C[C@H]3C)c2c1`, the Ki on Nociceptin receptor is 0.002 µM.
As for `CCN(CC)CCCC(C)Nc1nc(/C=C/c2cc(OC)c(OC)cc2Cl)nc2cc(Cl)ccc12` (stereo not drawn), the IC50 in assay [1] is 7.74 µM; in [2], greater than 100 µM; in assay [3] it was 4.81 µM; in [4], 5.15 µM; in assay [5], 6.85 µM. Further, the inhibition in [6] amounted to 0%; in assay [7], 80%; in [8], 70%; in assay [9] it was 50%.
In turn, `COc1ccccc1/C=C/c1nc(Nc2ccc3c(c2)OCO3)c2ccccc2n1` returned an inhibition in assay [10] of 90%. Also, the IC50 in assay [11] came to 0.237 µM; in assay [12], 0.191 µM; in the assay on HCT-116 [13], 15.9 µM; in the assay with HCT-116 [14], 13.7 µM; in the assay on MCF7, 4.86 µM; with A549, 9.88 µM. In the assay with NHDF, this compound came in with an IC50 of 7.72 µM.
